Usually Ki stands for the equilibrium dissociation constant of an inhibitor or competing ligand from its target. High values mean weaker binding, low ones tighter binding.

Each structure is given as a SMILES string.

This passage reports Ki results from patent US8232406B2, “c-MET protein kinase inhibitors” (Vertex Pharmaceuticals Incorporated, priority 2006, dated 2012).

The experiment addresses c-MET (Homo sapiens, UniProt P08581). In words: Ki determination for the inhibition of c-MET (standard radiometric 33P-ATP kinase assay, polyE4Y substrate). The following applies: 1.0 nM c-Met, 35 μM ATP, 0.5 mg/mL polyE4Y, 20 min; competitive tight-binding fit. Format: biochemical. Put shortly:
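Radiometric assay of 33P transfer from 33P-ATP (35 μM) to polyE4Y (0.5 mg/mL) by 1.0 nM c-Met in 100 mM HEPES pH 7.5, 10 mM MgCl2, 25 mM NaCl, 0.01% BSA, 1 mM DTT. TCA-quenched after 20 min, filter-captured, scintillation-counted; Ki fitted to a competitive tight-binding model.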

Chain of c-MET (P08581 25-1390): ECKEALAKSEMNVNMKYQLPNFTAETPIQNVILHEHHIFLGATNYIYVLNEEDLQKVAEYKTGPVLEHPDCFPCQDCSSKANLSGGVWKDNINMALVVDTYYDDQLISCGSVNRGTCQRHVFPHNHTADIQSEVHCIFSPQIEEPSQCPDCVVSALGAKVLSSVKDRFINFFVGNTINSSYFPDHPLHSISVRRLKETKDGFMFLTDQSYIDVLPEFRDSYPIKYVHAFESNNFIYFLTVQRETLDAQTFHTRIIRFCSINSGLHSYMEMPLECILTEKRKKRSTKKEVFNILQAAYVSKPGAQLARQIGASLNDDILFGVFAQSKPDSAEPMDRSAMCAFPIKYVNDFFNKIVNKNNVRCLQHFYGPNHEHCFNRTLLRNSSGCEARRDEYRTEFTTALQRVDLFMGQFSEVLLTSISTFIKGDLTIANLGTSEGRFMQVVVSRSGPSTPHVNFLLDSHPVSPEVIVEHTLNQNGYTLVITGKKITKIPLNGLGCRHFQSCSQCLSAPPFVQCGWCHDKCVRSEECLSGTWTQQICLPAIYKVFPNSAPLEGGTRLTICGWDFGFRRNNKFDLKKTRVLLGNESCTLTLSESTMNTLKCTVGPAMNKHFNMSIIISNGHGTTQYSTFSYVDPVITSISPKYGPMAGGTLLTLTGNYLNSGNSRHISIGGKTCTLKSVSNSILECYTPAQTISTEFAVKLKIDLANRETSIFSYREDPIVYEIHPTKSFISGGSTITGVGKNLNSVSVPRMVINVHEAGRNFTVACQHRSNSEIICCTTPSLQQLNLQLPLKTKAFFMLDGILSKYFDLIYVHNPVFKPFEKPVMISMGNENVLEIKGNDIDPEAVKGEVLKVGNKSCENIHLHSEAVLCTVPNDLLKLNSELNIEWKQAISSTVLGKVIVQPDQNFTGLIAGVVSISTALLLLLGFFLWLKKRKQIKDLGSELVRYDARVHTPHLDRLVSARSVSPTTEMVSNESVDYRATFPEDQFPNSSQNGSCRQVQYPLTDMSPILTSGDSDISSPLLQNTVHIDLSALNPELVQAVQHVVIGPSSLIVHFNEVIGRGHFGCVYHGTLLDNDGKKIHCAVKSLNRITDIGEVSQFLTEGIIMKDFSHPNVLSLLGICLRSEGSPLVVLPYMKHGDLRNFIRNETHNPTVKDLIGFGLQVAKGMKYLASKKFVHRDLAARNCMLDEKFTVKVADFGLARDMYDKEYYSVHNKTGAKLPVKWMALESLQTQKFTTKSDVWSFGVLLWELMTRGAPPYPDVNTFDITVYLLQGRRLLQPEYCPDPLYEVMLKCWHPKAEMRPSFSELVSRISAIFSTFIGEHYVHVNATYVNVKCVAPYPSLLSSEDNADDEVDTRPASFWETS

Take `Nc1ncc(-c2cccnc2)cc1-c1ncsc1-c1cccc(Cl)c1Cl` [I-C-8, 3-(5-(2,3-Dichlorophenyl)thiazol-4-yl)-5-(pyridin-3-yl)pyridin-2-amine]: the Ki lay in the range of 100 to 1000 nM. The value for `Nc1ncc(C2=CCN(C(=O)[C@@H]3CCOC3)CC2)cc1-c1nnnn1-c1cccc(F)c1F` [I-A-527] was at most 100 nM; that for `Nc1ncc(-c2ccc(O)cc2)cc1-c1nnnn1-c1cccc(F)c1F` [I-A-144] was at most 100 nM. The value for `Nc1ncc(C2=CCN(C(=O)[C@@H]3CCCN3)CC2)cc1-c1nnnn1-c1cccc(F)c1F` [I-A-504] was at most 100 nM; that for `Nc1ncc(-c2ccc3c(c2)CCNC3)cc1-c1nnnn1-c1cccc(F)c1F` [I-A-509] was 100 to 1000 nM. The value for `Nc1ncc(-c2cnn(C3CCNCC3)c2)cc1-c1nnnn1-c1c(F)ccc(Cl)c1F` [I-A-382] was at most 100 nM; that for `Nc1ncc(-c2cccnc2)cc1-c1nnnn1-c1c(F)cccc1Cl` [I-A-617] was 100 to 1000 nM; that for `Cc1c(Cl)cccc1-n1nnnc1-c1cc(-c2ccc(CN(C)C)cc2)cnc1N` [I-A-578] was 100 to 1000 nM. Consider `CC(=O)c1ccc(-c2cnc(N)c(-c3nnnn3-c3cccc(F)c3F)c2)s1` [I-A-179], for which the Ki lay in the range of 100 to 1000 nM. The compound `CN(C)Cc1ccc(-c2cnc(N)c(-c3nnnn3-c3cccc(F)c3F)n2)cc1` [I-A-48] yielded an inhibition constant Ki of at most 100 nM.

Take `Nc1ncc(-c2ccc(CN3CCCC3)cc2)cc1-c1nnnn1-c1cc(Cl)cc(Cl)c1` [I-A-597]: the inhibition constant Ki was in the range of 100 to 1000 nM. The value for `CC(=O)Nc1ccc(-c2cnc(N)c(-c3nnnn3-c3cccc(F)c3F)c2)s1` [I-A-263] was at most 100 nM; that for `Cc1nnc(-c2cc(-c3ccc(CN4CCCC4)cc3)cnc2N)n1-c1cccc(F)c1Cl` [I-A-388] was 100 to 1000 nM.

Compound `CN(Cc1ccc(-c2cnc(N)c(-c3nnnn3-c3cccc(Cl)c3Cl)c2)cc1)Cc1cccnc1` [I-A-107] returned a Ki of 100 to 1000 nM. `Cc1ccc(-c2cnc(N)c(-c3nnnn3-c3cccc(F)c3F)c2)cc1` [I-A-255]: the inhibition constant (Ki) lay within 100 to 1000 nM.

On to `Cn1cc(-c2cccc(Cl)c2Cl)c(-c2cc(-c3cnn(C4CCNCC4)c3)cnc2N)n1` [I-B-22], for which the inhibition constant Ki was at most 100 nM. Turning to `Nc1ncc(-c2ccc(CN3CCN(Cc4ccncc4)CC3)cc2)cc1-c1nnnn1-c1cccc(Cl)c1Cl` [I-A-105], the inhibition constant Ki was 100 to 1000 nM. `COc1cccc(-c2cnc(N)c(-c3nnnn3-c3cccc(F)c3F)c2)c1` [I-A-221] had a Ki of at most 100 nM. On to `Nc1ncc(-c2cnn(C3CCNCC3)c2)cc1-c1nnnn1-c1cccc(Cl)c1F` [I-A-626], for which the inhibitory constant (Ki) is at most 100 nM. For `CC(C)c1ccc(-c2cnc(N)c(-c3nnnn3-c3cccc(F)c3F)c2)cc1` [I-A-237], the Ki is 100 to 1000 nM. The value for `Cc1c(Cl)cccc1-n1nnnc1-c1cc(-c2ccc(CN3CCCC3)cc2)cnc1N` [I-A-599] was at most 100 nM. The value for `Cn1cc(-c2cccc(Cl)c2Cl)c(-c2cc(-c3ccc(N4CCCC4)nc3)cnc2N)n1` [I-B-20] was 100 to 1000 nM; that for `Nc1ncc(-c2cccnc2)cc1-c1nncn1-c1cccc(F)c1F` [I-A-39] was 100 to 1000 nM; that for `Nc1ncc(-c2ccc(CN3CCCC3)s2)cc1-c1nnnn1-c1cccc(F)c1F` [I-A-186] was at most 100 nM. The value for `CN(C)c1ccc(-c2cnc(N)c(-c3nnnn3-c3cccc(F)c3F)c2)cc1` [I-A-234] was at most 100 nM; that for `CS(=O)(=O)Nc1cccc(-c2cnc(N)c(-c3nnnn3-c3cccc(F)c3F)c2)c1` [I-A-254] was at most 100 nM; that for `CCOc1cccc(-c2cnc(N)c(-c3nncn3-c3cccc(F)c3F)n2)c1` [I-A-31] was 100 to 1000 nM. Take `Cc1nn(C2CCNCC2)c(C)c1-c1cnc(N)c(-c2nnnn2-c2cccc(Cl)c2F)c1` [I-A-479]: the Ki was 100 to 1000 nM. The value for `CCN(CC)Cc1ccc(-c2cnc(N)c(-c3nnnn3-c3cccc(F)c3F)c2)cc1` [I-A-66] was at most 100 nM; that for `Nc1ncc(-c2ccc(C3CCOC(=O)N3)cc2)cc1-c1nnnn1-c1cccc(F)c1F` (stereo not shown) [I-A-325] was at most 100 nM; that for `Nc1ncc(-c2cccnc2)nc1-c1nncn1-c1cc(Cl)ccc1F` [I-A-34] was 100 to 1000 nM. `Nc1ncc(-c2ccc(CN3CCOCC3)cc2)nc1-c1nnnn1-c1cccc(F)c1F` [I-A-51]: the Ki was at most 100 nM. The value for `COC(=O)[C@H](CC(C)C)NC(=O)Nc1cccc(-c2cnc(N)c(-c3nnnn3-c3cccc(F)c3F)c2)c1` [I-A-326] was 100 to 1000 nM. The value for `Nc1ncc(-c2cnn(CCO)c2)cc1-c1nc2cnccc2n1-c1cccc(F)c1F` [I-D-8] was at most 100 nM; that for `CN(C)Cc1ccc(-c2cnc(N)c(-c3nnnn3-c3c(Cl)cccc3Cl)c2)cc1` [I-A-629] was at most 100 nM. The value for `COc1ccc(-c2cnc(N)c(-c3nnnn3-c3cccc(F)c3F)c2)cc1F` [I-A-290] was at most 100 nM; that for `CC(C)C(=O)N1CC=C(c2cnc(N)c(-c3nnnn3-c3cccc(F)c3F)c2)CC1` [I-A-512] was at most 100 nM.

`Nc1ncc(-c2ccc(CN3CCCC3)cc2)cc1-c1nnnn1-c1c(F)cccc1F` [I-A-615] had an inhibition constant Ki of at most 100 nM.

The compound `Nc1ncc(-c2ccc3c(c2)OC(F)(F)O3)cc1-c1nnnn1-c1cccc(F)c1F` [I-A-285] came in with a Ki of 100 to 1000 nM.

The compound `CN1CCN(c2ccc(-c3cnc(N)c(-c4nc5cc(F)ccc5n4-c4cccc(Cl)c4F)c3)cc2)CC1` [I-D-21] had an inhibitory constant (Ki) of 100 to 1000 nM. The value for `Nc1ncc(C2=CCN(C(=O)C3CCOCC3)CC2)cc1-c1nnnn1-c1cccc(F)c1F` [I-A-521] was at most 100 nM; that for `CC(C)(C)OC(=O)N1CC=C(c2cnc(N)c(-c3nnnn3-c3cccc(F)c3F)c2)CC1` [I-A-506] was at most 100 nM. The value for `CN1CCN(c2ccc(-c3cnc(N)c(-c4nc5cnccc5n4-c4cccc(F)c4F)c3)cc2)CC1` [I-D-2] was at most 100 nM. `COCCN(CCOC)Cc1ccc(-c2cnc(N)c(-c3nnnn3-c3cccc(Cl)c3Cl)c2)cc1` [I-A-101]: the Ki was 100 to 1000 nM.

For `COc1ccc(F)cc1-n1nnnc1-c1cc(-c2ccc(CN(C)C)cc2)cnc1N` [I-A-606], the Ki is 100 to 1000 nM. The value for `CC(=O)Nc1cccc(-c2cnc(N)c(-c3nc4cnccc4n3-c3cccc(F)c3F)c2)c1` [I-D-12] was at most 100 nM. The value for `Nc1ncc(-c2ccco2)cc1-c1nnnn1-c1cccc(F)c1F` [I-A-488] was 100 to 1000 nM; that for `CN1CCN(c2ccc(-c3cnc(N)c(-c4nnc(O)n4-c4cccc(F)c4F)n3)cc2)CC1` [I-A-17] was 100 to 1000 nM. The value for `Nc1ncc(-c2cc3c(s2)CCNCC3)nc1-c1nnnn1-c1cccc(F)c1F` [I-A-653] was at most 100 nM.
